The values that follow come from ChEMBL document CHEMBL6127051, “Hydrazinecarboxamides: Comprehensive review of their anticancer, anticonvulsive, anti-inflammatory, enzyme inhibition, antioxidant and other activities” (Eur J Med Chem, 2024).

≈ marks a conversion by molar mass, not a printed value.

The target in one data set is Alpha glucosidase (Homo sapiens, UniProt O43451+P10253+P14410+Q2M2H8). The experiment in a line: Inhibition of Alpha glucosidase (unknown origin). It is filed as protein assay.
The nature of data set [1]: Inhibition of alpha amylase (unknown origin). Also on record: species or system Homo sapiens.
In data set [2] the test system is PC-3. The experiment in a line: Cytotoxicity against human PC-3 cells. Type of data set: functional, cell-based.
Data set [3] concerns MCF7. As to the kind of experiment: Cytotoxicity against human MCF7 cells assessed as inhibition of cell growth. Type of data set: functional, cell-based.
Data set [4] has as its system PC-3. The experiment in a line: Cytotoxicity against human PC-3 cells assessed as inhibition of cell growth. Type of data set: functional, cell-based.
Data set [5] can be described thus: Cytotoxicity against human HEK cells. It is filed as toxicity, cell-based.
In the next data set the test system is PANC-1. The experiment in a line: Induction of apoptosis in human PANC-1 cells assessed as apoptotic cells at 2 uM incubated for 24 hrs by flow cytometric analysis relative to control. It is filed as functional. Background: A flow cytometer gives signals particle by particle.
Data set [6] in a line: Antiproliferative activity against human MRC5 cells assessed as reduction in cell growth. It is filed as toxicity, cell-based.
The next data set has as its system HEK293. The experiment in a line: Antiproliferative activity against HEK293 cells assessed as inhibition of cell growth incubated for 48 hrs by CCK8 assay. It is filed as functional, cell-based. The conditions noted are these: Homo sapiens, HEK293, 48 h.
The test system of data set [7] is HepG2. As to the kind of experiment: Antiproliferative activity against human HepG2 cells assessed as reduction in cell growth incubated for 24 hrs by MTT assay. Type of data set: functional, cell-based. The conditions noted are these: HepG2, 24 h. In general terms: Tetrazolium dyes change colour on reduction, which living cells bring about.
For a further data set, the system named is NCI-H1563. As to the kind of experiment: Antiproliferative activity against human NCI-H1563 cells assessed as reduction in cell growth incubated for 24 hrs by MTT assay. The settings on record: NCI-H1563, 24 h. It is filed as functional, cell-based.
The next data set deals with 769-P. The experiment in a line: Antiproliferative activity against human 769-P cells assessed as reduction in cell growth incubated for 48 hrs by MTT assay. Type of data set: functional, cell-based.
In data set [8] the test system is HepG2. The experiment in a line: Antiproliferative activity against human HepG2 cells assessed as reduction in cell growth incubated for 48 hrs by MTT assay. It is filed as functional, cell-based. The settings on record: HepG2, 48 h.
The target in the next data set is Acetylcholinesterase (Electrophorus electricus, UniProt O42275). The experiment in a line: Inhibition of electric eel AChE using acetylthiocholine iodide as substrate incubated for 15 mins by Ellman's method.
A further data set deals with Cholinesterase (Equus caballus, UniProt P81908). The experiment in a line: Inhibition of equine serum BChE using butyrylthiocholine iodide as substrate measured after 15 mins by Ellman's method. A general note: In Ellman's method for cholinesterases, released thiocholine reacts with DTNB.
Data set [9] has as its system Mus musculus. As to the kind of experiment: Anticonvulsant activity in po dosed scPTZ induced Albino mouse seizure model measured after 4 hrs. Type of data set: functional.
The nature of data set [10]: Inhibition of Lipoxygenase (unknown origin). On the set-up: species or system Homo sapiens.
In the next data set the test system is MKN-45. As to the kind of experiment: Antiproliferative activity against human MKN-45 cells assessed as inhibition of cell growth by MTT assay. It is filed as functional, cell-based.
For another data set, the system named is P388. The experiment in a line: Cytotoxicity against mouse P388 cells assessed as reduction in cell viability. It is filed as functional, cell-based.
In the next data set the target is DNA topoisomerase 1 (Homo sapiens, UniProt P11387). As to the kind of experiment: Inhibition of DNA topoisomerase I (unknown origin).
The subject of data set [11] is HepG2. As to the kind of experiment: Antiproliferative activity against human HepG2 cells assessed as inhibition of cell growth incubated for 48 hrs by MTT assay. Type of data set: functional, cell-based. The conditions noted are these: HepG2, 48 h.
The subject of data set [12] is MCF7. The experiment in a line: Antiproliferative activity against human MCF7 cells assessed as reduction in cell growth incubated for 48 hrs by MTT assay. Type of data set: functional, cell-based. The conditions noted are these: MCF7, 48 h.
In data set [13] the target is Polyunsaturated fatty acid 5-lipoxygenase (Homo sapiens, UniProt P09917). As to the kind of experiment: Inhibition of 5-LOX (unknown origin).
Data set [14] in a line: Half life in rat at 2 mg/kg, po by LC-MS/MS analysis. It is filed as ADME, organism-based. The conditions noted are these: in vivo.
Data set [15] in a line: Tmax in rat at 2 mg/kg, po by LC-MS/MS analysis. The settings on record: in vivo. It is filed as ADME, organism-based.
In data set [16] the test system is Mus musculus. As to the kind of experiment: Anticonvulsant activity in ip dosed MES induced mouse model measured after 2 hrs. It is filed as functional.
Another data set concerns UO-31. The experiment in a line: Antiproliferative activity against human UO-31 cells assessed as inhibition of cell growth at 10 uM relative to control. It is filed as functional. Also on record: scale not given: the % may be the effect or the level left.
For data set [17], the system named is PC-3. The experiment in a line: Antiproliferative activity against human PC-3 cells assessed as inhibition of cell growth at 10 uM relative to control. The settings on record: pooled result: one value given for 4 cell lines, strains, targets or settings. Type of data set: functional. On the set-up: scale not given: the % may be the effect or the level left.

The subject of data set [18] is MCF7. As to the kind of experiment: Antiproliferative activity against human MCF7 cells assessed as reduction in cell viability measured after 48 hrs by MTT assay. Type of data set: functional, cell-based. The settings on record: MCF7, 48 h.
The next data set has as its system AR-42J cell line. The experiment in a line: Antiproliferative activity against AR42J cells assessed as reduction in cell viability incubated for 24 hrs by MTT colorimetric assay. It is filed as functional, cell-based. The conditions noted are these: Rattus norvegicus.
The subject of data set [19] is Mus musculus. As to the kind of experiment: Anticonvulsant activity in ip dosed MES induced mouse model measured after 4 hrs. It is filed as functional.
Data set [20] in a line: Antiplatelet activity in human platelets assessed as inhibition of collagen-induced platelet aggregation at 20 uM relative to control. Type of data set: functional. Also on record: scale not given: the % may be the effect or the level left.
Data set [21] can be described thus: Antiplatelet activity in human platelets assessed as inhibition of collagen-induced platelet aggregation at 10 uM relative to control. Type of data set: functional. On the set-up: scale not given: the % may be the effect or the level left.
Data set [22] concerns HepG2. The experiment in a line: Antiproliferative activity against human HepG2 cells assessed as reduction in cell viability incubated for 72 hrs by MTT assay. Type of data set: functional, cell-based. The conditions noted are these: HepG2, 72 h.
The next data set deals with HeLa. The experiment in a line: Cytotoxicity against human HeLa cells assessed as reduction in cell viability by MTT assay. Type of data set: functional, cell-based.
Data set [23] has as its system HepG2. The experiment in a line: Cytotoxicity against human HepG2 cells assessed as reduction in cell viability by MTT assay. Type of data set: functional, cell-based.
Data set [24] concerns MCF7. The experiment in a line: Cytotoxicity against human MCF7 cells assessed as reduction in cell viability by MTT assay. Type of data set: functional, cell-based.
A further data set has as its system HCT-116. The experiment in a line: Cytotoxicity against human HCT-116 cells assessed as reduction in cell viability by MTT assay. It is filed as functional, cell-based.

Polyunsaturated fatty acid 5-lipoxygenase, sequence (P09917 whole entry): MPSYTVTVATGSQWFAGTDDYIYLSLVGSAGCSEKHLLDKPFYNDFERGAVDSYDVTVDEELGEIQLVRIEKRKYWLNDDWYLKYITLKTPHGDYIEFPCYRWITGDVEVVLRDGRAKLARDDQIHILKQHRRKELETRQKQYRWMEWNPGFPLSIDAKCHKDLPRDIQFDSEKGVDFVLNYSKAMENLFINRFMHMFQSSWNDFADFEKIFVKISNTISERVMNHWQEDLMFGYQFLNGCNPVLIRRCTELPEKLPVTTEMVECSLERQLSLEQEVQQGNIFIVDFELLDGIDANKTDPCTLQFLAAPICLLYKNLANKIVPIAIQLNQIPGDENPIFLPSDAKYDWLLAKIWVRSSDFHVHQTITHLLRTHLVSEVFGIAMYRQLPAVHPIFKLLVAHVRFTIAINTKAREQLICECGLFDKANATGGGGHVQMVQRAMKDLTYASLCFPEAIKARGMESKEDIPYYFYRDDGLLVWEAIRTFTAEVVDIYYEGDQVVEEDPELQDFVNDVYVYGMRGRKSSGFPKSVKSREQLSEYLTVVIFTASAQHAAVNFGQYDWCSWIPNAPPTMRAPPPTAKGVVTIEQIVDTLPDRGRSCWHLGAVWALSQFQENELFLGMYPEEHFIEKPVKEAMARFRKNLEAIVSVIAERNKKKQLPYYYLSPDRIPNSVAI
Acetylcholinesterase, sequence (O42275 whole entry): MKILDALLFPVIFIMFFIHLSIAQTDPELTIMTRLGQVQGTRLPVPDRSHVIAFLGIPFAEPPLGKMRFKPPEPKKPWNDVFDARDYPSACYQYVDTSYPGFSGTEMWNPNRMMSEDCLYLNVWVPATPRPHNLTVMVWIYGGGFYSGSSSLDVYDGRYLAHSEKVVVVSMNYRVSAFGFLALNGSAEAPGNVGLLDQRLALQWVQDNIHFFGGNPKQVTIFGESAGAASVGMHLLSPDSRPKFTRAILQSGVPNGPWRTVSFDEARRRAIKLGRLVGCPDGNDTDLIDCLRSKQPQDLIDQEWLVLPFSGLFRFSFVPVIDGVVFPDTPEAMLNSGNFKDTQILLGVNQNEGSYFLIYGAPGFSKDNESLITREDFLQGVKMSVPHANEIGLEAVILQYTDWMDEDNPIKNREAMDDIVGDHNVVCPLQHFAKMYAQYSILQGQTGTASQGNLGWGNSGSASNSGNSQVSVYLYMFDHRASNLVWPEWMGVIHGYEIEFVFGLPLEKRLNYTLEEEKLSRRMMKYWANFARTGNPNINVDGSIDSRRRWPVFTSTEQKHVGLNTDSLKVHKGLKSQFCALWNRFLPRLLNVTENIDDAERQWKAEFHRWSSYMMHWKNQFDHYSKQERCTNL
Cholinesterase, sequence (P81908 whole entry): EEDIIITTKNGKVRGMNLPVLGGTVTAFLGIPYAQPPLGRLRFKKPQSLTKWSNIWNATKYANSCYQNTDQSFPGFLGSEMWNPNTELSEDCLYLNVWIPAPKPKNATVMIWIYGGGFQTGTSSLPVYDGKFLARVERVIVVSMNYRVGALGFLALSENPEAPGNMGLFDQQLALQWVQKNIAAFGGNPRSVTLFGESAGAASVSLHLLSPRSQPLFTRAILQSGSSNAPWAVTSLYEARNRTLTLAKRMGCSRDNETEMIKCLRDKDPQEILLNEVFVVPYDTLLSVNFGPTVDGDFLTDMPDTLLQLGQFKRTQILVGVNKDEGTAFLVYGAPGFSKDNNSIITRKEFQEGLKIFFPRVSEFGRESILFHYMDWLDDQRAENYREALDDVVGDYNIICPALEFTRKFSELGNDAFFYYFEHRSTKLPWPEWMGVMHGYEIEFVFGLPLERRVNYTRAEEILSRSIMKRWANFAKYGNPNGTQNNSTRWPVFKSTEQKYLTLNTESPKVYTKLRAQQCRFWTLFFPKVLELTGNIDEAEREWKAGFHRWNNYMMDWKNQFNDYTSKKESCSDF
DNA topoisomerase 1, sequence (P11387 whole entry): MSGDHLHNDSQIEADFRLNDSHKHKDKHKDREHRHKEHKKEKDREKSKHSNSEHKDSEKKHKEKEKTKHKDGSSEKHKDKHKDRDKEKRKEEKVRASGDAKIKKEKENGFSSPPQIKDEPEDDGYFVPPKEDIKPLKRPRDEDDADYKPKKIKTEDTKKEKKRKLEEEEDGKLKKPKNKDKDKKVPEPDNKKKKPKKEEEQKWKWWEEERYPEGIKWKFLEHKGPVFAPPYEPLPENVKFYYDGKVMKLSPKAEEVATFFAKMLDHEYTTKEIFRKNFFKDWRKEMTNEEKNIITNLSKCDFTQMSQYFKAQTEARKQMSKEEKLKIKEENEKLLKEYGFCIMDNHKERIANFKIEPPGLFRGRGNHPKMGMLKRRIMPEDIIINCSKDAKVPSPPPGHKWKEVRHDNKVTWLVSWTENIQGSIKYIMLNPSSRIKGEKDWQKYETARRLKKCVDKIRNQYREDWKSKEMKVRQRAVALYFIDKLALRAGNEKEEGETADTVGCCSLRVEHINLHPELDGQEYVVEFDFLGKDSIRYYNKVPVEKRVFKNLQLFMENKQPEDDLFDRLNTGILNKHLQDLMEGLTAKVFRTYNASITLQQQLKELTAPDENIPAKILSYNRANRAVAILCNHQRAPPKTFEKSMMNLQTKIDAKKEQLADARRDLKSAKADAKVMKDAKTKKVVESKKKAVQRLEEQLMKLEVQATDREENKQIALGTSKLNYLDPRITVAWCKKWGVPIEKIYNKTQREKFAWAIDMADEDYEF

Regarding `Cc1ccc(C[C@@H]2C[C@H]3C(=O)N(C)C4(C[C@H](C)CC[C@H]4C(C)C)N3O2)c(OCC(=O)NNC(=O)Nc2cccc3ccccc23)c1` (some centres undefined), the results for the IC50 (against Alpha glucosidase; in data set [1]) were 94.33 µM and 53 µM, respectively.

For the compound `CCc1nc2cc(Cl)c(Cl)cc2n1CC(=O)NNC(=O)Nc1ccccc1`, the IC50 (usually the concentration that gives 50% inhibition) with PC-3 [2] stood at 25.2 µg/mL (≈ 62 µM); with MCF7 [3], 25.2 µg/mL (≈ 62 µM); in the data set on PC-3 [4], 25.2 µg/mL (≈ 62 µM); in data set [5], 127 µg/mL (≈ 312 µM).

Consider `COc1ccc(NC(=O)NNC(=O)c2oc3ccccc3c2CN2CCN(c3ccccc3)CC2)cn1`, for which the Activity with PANC-1 is recorded as 29.93%. In data set [6], the IC50 is 74 µM.

Consider `CCNC(=O)NNC(=O)c1ccc([N+](=O)[O-])cc1`, for which the IC50 in the data set on HEK293 stood at 1500 µM; in the data set with HepG2 [7], 7.06 µM; in the data set on NCI-H1563, 336 µM; with 769-P, 4780 µM; in the data set on HepG2 [8] it was 1930 µM.

Take `CCCCCCCCCCCCCNC(=O)NNC(=O)c1ccc(C(F)(F)F)cc1`: the IC50 against Acetylcholinesterase turned out to be 27 µM; against Cholinesterase, 58 µM.

Consider `O=C(CSc1nc2ccccc2n2cnnc12)NNC(=O)NC1CCCCC1`, for which the ED50 (usually the dose that gives a 50% effect, or the effect in half of the subjects) with Mus musculus [9] turned out to be 30 mg/kg.

On to `CC(C(=O)O)c1cccc(Oc2ccccc2)c1` (centres undefined) [FENOPROFEN], for which half-maximal inhibition in data set [10] (IC50) was put at 60 µM.

As to `O=C(Nc1ccccc1)NN1C(=O)c2c(c3c4cccc(O)c4n([C@H]4O[C@H](CO)[C@@H](O)[C@H](O)[C@H]4O)c3c3[nH]c4c(O)cccc4c23)C1=O`, the IC50 is 0.035 µM in the data set on MKN-45, 0.035 µM with P388 and 0.25 µM on DNA topoisomerase 1.

`O=C(NNC(=O)C(=O)Nc1ccccc1)Nc1ccccc1`: the IC50 turned out to be 7.73 µM in the data set with HepG2 [11] and 10.3 µM in the data set with MCF7 [12].

Turning to `O=C1NCCN(c2ccccc2)N1`, in [13], the IC50 worked out at 5 µM. The half-life (usually how long it takes for the measured level to halve) in data set [14] is 3.3 h. In [15], the Tmax (in general, the time at which the peak concentration occurs) was 1 h.

For the compound `Cc1ccc(NC(=O)NN)cc1`, in the data set on Mus musculus [16], the Activity is 100%.

Regarding `CC(=O)Nc1nc(C)c(C(=O)NNC(=O)Nc2ccccc2)s1`, the Activity in the data set with UO-31 and with PC-3 [17] was 14.8% in each case.

Consider `COc1cc(/C=C2\SC(=S)N(n3c(=O)[nH]c4ccccc4c3=O)C2=O)ccc1OC(=O)c1ccccc1`, for which, in the data set on MCF7 [18], the IC50 was 0.012 µM.

For `O=C(CNc1nc2ccccc2n1C(=O)Nc1ccccc1)NNC(=O)Nc1ccccc1`, the figures for the IC50 (with AR-42J cell line; in data set [1]) were 304 µM and 64.8 µM, respectively.

In turn, `NNC(=O)Nc1ccccc1Cl` showed an Activity with Mus musculus [19] of 66.6%.

Take `O=C(NNc1ccnc2ccccc12)Nc1ccccc1`: the values for the Activity in data set [20] and in [21] were 10.6% and 11.7%, respectively.

As to `Cc1ccc(S(=O)(=O)NC(=O)NNC(=O)Cn2c(C(C)C)nc3ccccc32)cc1`, the IC50 in the data set on HepG2 [22] stood at 80.7 µM.

For `Cc1c(C(=O)NNC(=O)Nc2ccc([N+](=O)[O-])cc2)nnn1Cc1nc2ccccc2[nH]1`, the IC50 with HeLa is 19.1 µM; in the data set with HepG2 [23], 25 µM; in the data set with MCF7 [24], 16.6 µM; with HCT-116, 32.8 µM.
